In assay [1] the test system is bone marrow cells. The settings on record: concentrations at which the adrenergic antagonists are effective; cited from earlier work.
Assay [2] concerns HSV-1. The settings on record: cited from earlier work.
The subject of assay [3] is HSV-1. The experiment in a line: systemic or local treatment, HSV-1 reactivation from latency. It is filed as in vivo.
In assay [4] the test system is Langerhans cells. The following applies: administered intraperitoneally; cited from earlier work.
The nature of assay [5]: antibody response in treated subjects. The format is in vivo.

Counter-ions that a name gives are not always drawn.

Turning to `Cc1ccc(N(CC2=NCCN2)c2cccc(O)c2)cc1` [phentolamine], the “relative order of potency in counteracting norepinephrine” value in assay [1] is “prazosin>phentolamine>yohimbine”.

Regarding `COc1cc2nc(N3CCN(C(=O)c4ccco4)CC3)nc(N)c2cc1OC` [prazosin], in assay [1], the “relative order of potency in counteracting norepinephrine” value is reported as “prazosin>phentolamine>yohimbine”.

Take `COC(=O)[C@@H]1[C@H]2C[C@H]3c4[nH]c5ccccc5c4CCN3C[C@@H]2CC[C@@H]1O` [yohimbine hydrochloride]: in assay [2], the “activity on HSV-1” value was “inactive”.

Turning to `COC(=O)[C@@H]1[C@H]2C[C@H]3c4[nH]c5ccccc5c4CCN3C[C@@H]2CC[C@@H]1O` [yohimbine, (16α,17α)-hydroxyyohimban-16-carboxylic acid methyl ester], the “inflammation during HSV-1 reactivation” value in assay [3] (in vivo) was “reduced inflammation”. Moreover, in assay [3] (systemic or local treatment), the HSV-1 reactivation frequency entry is on record as “reduces the HSV-1 reactivation frequency” and the local norepinephrine concentration entry is on record as “local increase of norepinephrine concentration”. In addition, the Langerhans cells migration entry in assay [4] is reported as “enhances the Langheran's cells migration”. The antibody response result in assay [5] is “stimulates and enhances the antibody response”.

The values are drawn from patent publication US20040142960A1 (priority 2001, published 2004).
